According to the kinase profiling compilation of Christmann-Franck et al. (2016):

Target: ABL1 (human) (UniProt P00519)
Assay: radiometric filter-binding kinase assay, Kinase HotSpot
Settings: compound 0.5 µM; ATP 10 µM

ABL1 (human), sequence (P00519 whole entry, looked up): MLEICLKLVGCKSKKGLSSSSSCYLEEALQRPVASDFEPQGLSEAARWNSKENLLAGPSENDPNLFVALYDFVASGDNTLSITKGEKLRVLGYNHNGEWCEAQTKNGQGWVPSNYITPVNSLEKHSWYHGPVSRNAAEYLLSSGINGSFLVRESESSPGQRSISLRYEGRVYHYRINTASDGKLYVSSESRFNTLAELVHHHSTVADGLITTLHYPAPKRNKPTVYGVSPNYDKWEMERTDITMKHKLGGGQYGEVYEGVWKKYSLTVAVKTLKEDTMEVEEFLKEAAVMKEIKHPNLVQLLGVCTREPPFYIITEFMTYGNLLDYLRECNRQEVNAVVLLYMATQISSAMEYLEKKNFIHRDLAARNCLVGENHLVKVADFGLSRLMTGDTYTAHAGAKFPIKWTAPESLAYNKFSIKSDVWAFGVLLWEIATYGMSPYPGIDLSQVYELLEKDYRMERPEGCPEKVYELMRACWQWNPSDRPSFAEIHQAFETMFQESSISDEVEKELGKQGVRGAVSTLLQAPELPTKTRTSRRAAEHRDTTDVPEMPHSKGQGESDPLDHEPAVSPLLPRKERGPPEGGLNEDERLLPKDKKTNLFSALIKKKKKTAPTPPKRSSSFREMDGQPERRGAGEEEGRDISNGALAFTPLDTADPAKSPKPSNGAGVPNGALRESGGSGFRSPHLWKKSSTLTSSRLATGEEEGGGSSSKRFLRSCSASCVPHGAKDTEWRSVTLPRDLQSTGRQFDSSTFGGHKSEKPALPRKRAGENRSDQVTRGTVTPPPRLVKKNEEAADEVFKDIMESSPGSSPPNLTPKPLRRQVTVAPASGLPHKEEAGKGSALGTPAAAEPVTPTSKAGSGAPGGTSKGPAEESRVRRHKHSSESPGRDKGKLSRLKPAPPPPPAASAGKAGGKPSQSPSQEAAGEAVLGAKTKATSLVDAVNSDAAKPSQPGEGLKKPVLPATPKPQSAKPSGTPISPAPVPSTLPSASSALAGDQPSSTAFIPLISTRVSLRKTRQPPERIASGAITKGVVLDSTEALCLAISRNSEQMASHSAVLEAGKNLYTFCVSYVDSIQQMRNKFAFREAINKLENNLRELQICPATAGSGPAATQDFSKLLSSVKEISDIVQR

SMILES	residual activity
O=C1Nc2ccccc2/C1=C\c1c(Cl)[nH]c2ccccc12	95.2%
CCCNC(=O)Nc1ccc(Oc2ncnc3cc(OC)c(OC)cc23)cc1Cl	89%
O=c1cc(N2CCNCC2)oc2c(-c3ccccc3)cccc12	110%
CSc1nc(-c2ccc(F)cc2)c(-c2ccnc(NC(C)c3ccccc3)c2)[nH]1 (stereo unspecified)	103%
Clc1ccc(Nc2nnc(Cc3ccncc3)c3ccccc23)cc1	96.5%
O=C(NC(NC(=S)Nc1ccc(F)c([N+](=O)[O-])c1)C(Cl)(Cl)Cl)C(c1ccccc1)c1ccccc1 (stereo unspecified)	101%
CCN1/C(=C/C(C)=O)Sc2ccc(OC)cc21	92.9%
CC(C)n1cnc2c(Nc3cccc(Cl)c3)nc(NCCO)nc21	73.3%
O=C(Nc1ccc(Cl)cc1)c1ccccc1NCc1ccncc1	99.7%
COc1ccc(-c2cnc3c(-c4ccsc4)cnn3c2)cc1	72.9%
CC(C)[C@H](CO)Nc1nc(Nc2cccc(Cl)c2)c2ncn(C(C)C)c2n1	75.6%
Nc1n[nH]c2nnc(-c3c(-c4ccccc4)nn4ccccc34)cc12	83.3%
Cc1cc2ncc(-c3ccccc3)nc2cc1C	99.6%
COc1cc2nccc(Oc3ccc(NC(=S)NC(=O)c4ccccc4C)cc3)c2cc1OC	50.6%
O=C1Cc2c([nH]c3ccc([N+](=O)[O-])cc23)-c2ccccc2N1	57.7%
CC(C)(C)c1nc2c3ccc(F)cc3c3c(=O)[nH]ccc3c2[nH]1	98.4%
Nc1nc(Nc2ccc(S(N)(=O)=O)cc2)nn1C(=S)Nc1c(F)cccc1F	4.96%
NC(=O)c1ccc(N(C(N)=O)c2c(F)cccc2F)nc1-c1ccc(F)cc1F	99.7%
CS(=O)c1ccc(-c2nc(-c3ccc(F)cc3)c(-c3ccncc3)[nH]2)cc1 (stereo unspecified)	97%
O=c1cc(-c2cccc3c2Sc2ccccc2S3)oc(N2CCOCC2)c1	99.5%
Cc1ccc(NC(=O)c2ccc(CN3CCN(C)CC3)cc2)cc1Nc1nc(-c2cccnc2)cs1	49.8%
